Assay results from PubChem BioAssay (NCI).
“And” between values parts separate entries of the source, which are not always exact repeats. Equal entries are not always repeated.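 In this assay, cells in 96-well plates receive the compound at five concentrations for 48 hours. Endpoints are linearly interpolated between the surrounding concentrations. GI50 marks 50% less growth. TGI marks complete inhibition of growth.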

Legend:
Assay in all cases: DTP human tumour cell line panel, 48 h
SK-MEL-2 melanoma = system: SK-MEL-2 melanoma
M14 melanoma = system: M14 melanoma
SK-MEL-5 melanoma = system: SK-MEL-5 melanoma
MALME-3M melanoma = system: MALME-3M melanoma
RPMI-8226 leukemia = system: RPMI-8226 leukemia
MDA-MB-435 = system: MDA-MB-435
EKVX NSCLC = system: EKVX NSCLC
LOX IMVI melanoma = system: LOX IMVI melanoma
MDA-MB-231 breast = system: MDA-MB-231 breast
NCI-H226 lung = system: NCI-H226 lung

Row | SMILES | GI50 (SK-MEL-2 melanoma) [µM] | TGI (SK-MEL-2 melanoma) [µM] | GI50 (M14 melanoma) [µM] | TGI (M14 melanoma) | GI50 (SK-MEL-5 melanoma) [µM] | TGI (SK-MEL-5 melanoma) | GI50 (MALME-3M melanoma) [µM] | TGI (MALME-3M melanoma) | GI50 (RPMI-8226 leukemia) [nM] | TGI (RPMI-8226 leukemia) [µM] | GI50 (MDA-MB-435) [µM] | TGI (MDA-MB-435) | GI50 (EKVX NSCLC) [µM] | TGI (EKVX NSCLC) | GI50 (LOX IMVI melanoma) [nM] | TGI (LOX IMVI melanoma) | GI50 (MDA-MB-231 breast) [µM] | TGI (MDA-MB-231 breast) | GI50 (NCI-H226 lung) [nM] | TGI (NCI-H226 lung)
1 | Oc1ccc(C(c2ccc(O)cc2)c2ccc(Br)cn2)cc1 | 1.69 | 21 | 14.5 | 47.4 µM | 11.9 | 24.5 µM | 17.7 | 59.8 µM | 15600 | 58.6 | 20 | 65.9 µM | 0.358 | 3.85 µM | 282 | 0.895 µM | 13.4 | 49.2 µM | 243 | 0.651 µM
2 | Cc1cc[n+]2c(c1)-c1cc(C)cc[n+]1CC2 | – | > 100 | – | > 100 µM | – | > 100 µM | – | > 100 µM | – | > 100 | – | > 100 µM | – | > 100 µM | – | > 100 µM | – | > 100 µM | – | > 100 µM
3 | Cc1cc(C#Cc2ccc(C(C)(C)C)cc2)ccc1-n1c(/C=C/c2ccc(O)cc2O)nc2ccccc2c1=O | 3.52 | 13.4 | 5.91 | 25.6 µM | 1.77 | 3.98 µM | 8.42 | 23.2 µM | 3100 | 26.9 | 3.08 | 12.3 µM | 3.67 | 16.2 µM | 1490 | 2.87 µM | 3.06 | 9.59 µM | 2170 | 8.25 µM
4 | Cc1cc(N=Nc2ccccc2C)ccc1N | – | 33.5 | 16.1 | 24.9 µM and 38.7 µM | 14.1 | 29.2 µM and 27.4 µM | 16.2 | 38.6 µM and 39 µM | 1690 | 34.5 | 12.7 | 49.3 µM and 46 µM | 11.7 | 45.4 µM and 68 µM | 13900 | 25 µM and 28.9 µM | 12.7 | 30.7 µM and 28.4 µM | 10300 | 30.8 µM and 27.8 µM
5 | C[C@]12CC[C@@H]3c4cc(OC(F)F)c(OS(N)(=O)=O)cc4CC[C@H]3[C@@H]1CC[C@@H]2O | 3.34 | 38.7 | 0.343 | 14.6 µM | 0.315 | 3.56 µM | 0.485 | 21.6 µM | 449 | 21.9 | 0.209 | 0.603 µM | 0.709 | 54.8 µM | 428 | 15.3 µM | 1.62 | 15.5 µM | 1800 | 21.8 µM
6 | C(=N/N(Cc1ccccc1)Cc1ccccc1)/c1ccccc1 | 25 | 72.6 | 90.1 | > 100 µM | 55.4 | > 100 µM | 41.1 | > 100 µM | 51800 | > 100 | 77.3 | > 100 µM | 59.3 | > 100 µM | > 100000 | > 100 µM | > 100 | > 100 µM | > 100000 | > 100 µM
7 | OCCNC1c2cc(Cl)ccc2-c2c(Cl)cc(Cl)cc21 (centres undefined) | – | 45.4 | – | > 100 µM | – | > 100 µM | – | > 100 µM | – | > 100 | – | > 100 µM | – | > 100 µM | – | > 100 µM | – | 98.9 µM | – | > 100 µM
8 | C[N+](C)(C)CC1CCCC1=O (centres undefined) | – | 12.2 | – | 2.61 µM | – | 12.5 µM | – | 1.61 µM | – | 11.2 | – | 3.22 µM | – | 4.62 µM | – | 2.33 µM | – | 2.77 µM | – | 34.6 µM
9 | CCC1(O)C(=O)OCc2c1cc1n(c2=O)Cc2cc3c(NC(=O)CN)cccc3nc2-1 (centres undefined) | 9.74 | 41.1 | 0.532 | 8.73 µM | 0.8 | 4.78 µM | 6.94 | 41.1 µM | 1690 | 40.3 | 5.4 | > 70 µM | 19.7 | > 88.2 µM | 146 | 4.08 µM | 58.1 | > 100 µM | 385 | 4.29 µM
10 | COC1C(N)C(OC2C(Oc3cccc4c(O)c5c(=O)oc6ccc(C)c7c(=O)oc(c34)c5c67)OC(C)C(O)C2(C)O)OC(C)C1O (centres undefined) | – | 0.0378 | – | 0.75 µM | – | 0.265 µM | – | 0.171 µM | – | 12.4 | – | 0.219 µM | – | 1.03 µM | – | 0.28 µM | – | 1.74 µM | – | 0.169 µM
11 | Nc1nc(Nc2ccccc2SSc2ccccc2Nc2nc(N)nc(C(Cl)(Cl)Cl)n2)nc(C(Cl)(Cl)Cl)n1 | 13.2 | 33.9 | 9.13 | 22.9 µM | 5.97 | 32.2 µM | 5.9 | 18.6 µM | 2940 | 10.2 | 6.39 | 24.9 µM | 5.8 | 20.4 µM | 1680 | 3.13 µM | 3.13 | 10.7 µM | 3490 | 15.9 µM
